From patent US20090192077A1, “North-2'deoxy -methanocarbathymidines as antiviral agents for treatment of kaposi's sarcoma-associated herpes virus” (priority 2005, published 2009)

Columns and labels:
[1] = system: PMA-stimulated BCBL-1 cells; experiment: Cytotoxicity by XTT assay in BCBL-1 cells
Protocol: (§1) The cytotoxicity of the compounds was determined simultaneously in uninduced and PMA-induced BCBL-1 cells in microplates, using the XTT assay (Weislow, O, S. et al. 1989 J Natl Cancer Inst 81:577-86).
PMA-stimulated BCBL-1 cells were cultured with increasing concentrations of N-MCT, CDV or GCV and the cell growth was determined by XTT method (Weislow, O, S. et al. 1989 J Natl Cancer Inst 81:577-86) after 72 hours and shown as % no drug control (mean±SD of triplicate wells).

[2] = system: KSHV; experiment: Anti-KSHV activity in the presence of herpesvirus TK inhibitor 5'-ET; assay type: cell-based, Kaposi's sarcoma-associated herpesvirus; conditions: PMA-induced BCBL-1; 1 μM N-MCT or 10 μM CDV with 10, 20 or 50 μM 5'-ET
Protocol: as §1
Exponentially growing BCBL-1 cells or CEM-SS cells (a human T cell line) were washed three times with PBS and cultured in serum free AIM-V w/BSA medium (Invitrogen) at 2×10^5 cells/mL in the absence (unstimulated control) or presence of 20 ng/mL PMA. After 24 hours, unstimulated and PMA-stimulated cells were harvested, washed once with PBS and resuspended in […] radiolabeled compound [^3H]-(N)-MCT, [^3H]-CDV or [^3H]-GCV. Control cultures containing the same concentration of the test compounds but without the radiolabeled formulations were simultaneously set up in an identical manner to assess the cell counts and to evaluate their anti-KSHV activity. In selected experiments, 5′-ET was added at 10˜50 μM to investigate the changes in the anti-KSHV activity and intracellular phosphorylation profiles of the test compounds. The cells were harvested after 24 or 72 hours of incubation.

[3] = system: KSHV; experiment: Anti-KSHV activity in PMA-induced BCBL-1 cells (virion-associated and cytoplasmic KSHV DNA by PCR); assay type: cell-based, Kaposi's sarcoma-associated herpesvirus; conditions: for IC50 / IC90: Human gammaherpesvirus 8, BCBL1, 72 h, PMA-stimulated BCBL-1 cells, KSHV virion production, 3 days; for IC50: read-out: IC50 (μM) (mean ± SD), anti-KSHV activity; for IC90: read-out: IC90 (μM) (mean ± SD), anti-KSHV activity
Protocol: A small fraction (1-3%) of BCBL-1 cells in culture is known to spontaneously undergo lytic cycle and release KSHV virions (Kedes, D. H. et al. 1997 J Clin Invest 99:2082-6; Renne, R. et al. 1996 Nat Med 2:342-6). The antiviral effects of N-MCT and two reference anti-herpetic compounds, CDV and GCV, were determined by the relative reduction in the amounts of cytoplasmic KSHV DNA and newly released KSHV virion-associated DNA in BCBL-1 cells exposed to the test compounds, following lytic induction by phorbol ester, PMA (Renne, R. et al. 1996 Nat Med 2:342-6).
Exponentially growing BCBL-1 cells were washed three times with phosphate-buffered saline (PBS) and resuspended in serum free AIM-V w/BSA medium (Invitrogen, Carlsbad, Calif.) at 2×10^5 cells/mL in the absence (unstimulated control) or presence of 20 ng/mL PMA. After 24 hours, unstimulated and PMA-stimulated BCBL-1 were harvested, washed once with PBS and cultured in serum free AIM-V w/BSA medium at 2×10^5 cells/mL without PMA in the absence or presence of the test compounds at varying concentrations. After 3 days, the cells were counted by the trypan blue dye exclusion method and centrifuged at 1,500 rpm for 5 min. The supernatants were centrifuged at 3,000 rpm for 10 min before subjected to virion-derived KSHV DNA extraction and quantitation, as described below.
Low molecular weight (LMW) DNA was extracted from the pelleted cells according to Hirt's method (Hirt, B. 1967 J Mol Biol 26:365-9) and 0.1 μg of LMW DNA was used for KSHV open reading frame 65 (ORF65) PCR by a primer pair (5′-[…]-3′, SEQ ID NO: 2) and 5′-[…]-3′, SEQ ID NO: 3), generating a 529 bp fragment. The ORF65 PCR reaction mixture, containing 20 mM Tris-HCl (pH 8.4), 50 mM KCl, 2.5 mM MgCl2, 200 μM each dNTP, 0.25 U of Platinum® Taq DNA polymerase (Invitrogen), […] and template DNA, was subjected to 25 cycles of PCR amplification at 94° C. for 60 sec, 60° C. for 60 sec and 72° C. for 60 sec, followed by a final extension at 72° C. for 5 min. In addition, the mitochondrial DNA primer pair (5′-[…]-3′, SEQ ID NO: 4 and 5′-[…]-3′, SEQ ID NO: 5) was used as an internal control for each LMW DNA PCR sample (Yang, Q. et al. 2005 J Virol 79:6122-6133). The amplified products were visualized by electrophoresis on a 1.8% agarose gel.
KSHV virions were pelleted from 300 μL of BCBL-1 culture supernatants by a microcentrifugation at 37,000 g for 2 hours at 4° C. The pelleted virions were resuspended in 150 μL PBS and treated with 20 units of DNase I (Promega, Madison, Wis.) at 37° C. for 30 min to remove cellular DNA from the samples, followed by the incubation with stop solution (20 mM EGTA) at 70° C. for 5 min. Virion-associated KSHV DNA (vDNA) was then extracted by QIAamp DNA extraction kit (QIAGEN, Valencia, Calif.) according to the manufacturer's instructions. One μL of vDNA eluted in 100 μL of elution buffer was subjected to real-time quantitative PCR using a LightCycler® instrument (Roche Applied Science, Indianapolis, Ind.). The 20-μL reaction mixture consisted of the LightCycler FastStart DNA Master SYBR Green I reagents mix (Roche Applied Science), 2.5 mM MgCl2 and 500 nM each of KSHV ORF26 primer pair (5′-[…]-3′, SEQ ID NO: 6 and 5′-[…]-3′, SEQ ID NO: 7). Ten-fold serial dilutions of the plasmid, pKS330Bam (obtained through the AIDS Research and Reference Reagent Program, Division of AIDS, NIAID, NIH, contributed by Drs. Yuan Chang and Patrick Moore), which contained a 330 bp KSHV fragment encoding a portion of the ORF26 gene (Chang, Y. et al. 1994 Science 266:1865-9), were included in each assay as external standards to represent 10 to […] KSHV DNA copies/tube. The number of KSHV vDNA in each supernatant sample was calculated by the LightCycler software version 3.5 (Roche Applied Science), adjusted by the cell count and expressed as copies/10^6 cells.

[4] = system: HSV-1; conditions: cited from earlier work
[5] = system: HSV-2; conditions: cited from earlier work
[6] = system: BCBL-1 cells; experiment: Intracellular phosphorylation in KSHV-infected BCBL-1 cells (HPLC of methanolic extracts)
Protocol: Exponentially growing BCBL-1 cells or CEM-SS cells (a human T cell line) were washed three times with PBS and cultured in serum free AIM-V w/BSA medium (Invitrogen) at 2×10^5 cells/mL in the absence (unstimulated control) or presence of 20 ng/mL PMA. After 24 hours, unstimulated and PMA-stimulated cells were harvested, washed once with PBS and resuspended in serum free AIM-V […] radiolabeled compound [^3H]-(N)-MCT, [^3H]-CDV or [^3H]-GCV. Control cultures containing the same concentration of the test compounds but without the radiolabeled formulations were simultaneously set up in an identical manner to assess the cell counts and to evaluate their anti-KSHV activity. In selected experiments, 5′-ET was added at 10˜50 μM to investigate the changes in the anti-KSHV activity and intracellular phosphorylation profiles of the test compounds. The cells were harvested after 24 or 72 hours of incubation.
Upon harvest, the cells were centrifuged at 1,500 rpm for 10 min and washed once with cold PBS. The cell pellets were resuspended in 250 μL of 60% methanol and heated at 95° C. for 3 min, followed by a microcentrifugation at 12,000 g for 10 min at 4° C. The clarified supernatant fractions were evaporated under nitrogen, redissolved in 250 μL of water and subjected to HPLC separation of the phosphorylated metabolites as described in detail elsewhere (Noy, R. et al. 2002 Mol Cancer Ther 1:585-93; Zalah, L. et al. 2002 Antiviral Res 55:63-75). Fractions containing radiolabeled nucleotides were quantitated based on the known specific activity of the parent tritiated nucleoside (Noy, R. et al. 2002 Mol Cancer Ther 1:585-93; Zalah, L. et al. 2002 Antiviral Res 55:63-75).

[7] = molecular target: T1, recombinant KSHV DNA polymerase (rPOL) and polymerase processivity factor (rPPF) (Human herpesvirus 8 type P, UniProt Q2HRD0); conditions: read-out: IC50 (μM) (mean ± SD), KSHV rPOL/rPPF-mediated DNA synthesis; 37° C., 60 min
T1 sequence (Q2HRD0 1-1012): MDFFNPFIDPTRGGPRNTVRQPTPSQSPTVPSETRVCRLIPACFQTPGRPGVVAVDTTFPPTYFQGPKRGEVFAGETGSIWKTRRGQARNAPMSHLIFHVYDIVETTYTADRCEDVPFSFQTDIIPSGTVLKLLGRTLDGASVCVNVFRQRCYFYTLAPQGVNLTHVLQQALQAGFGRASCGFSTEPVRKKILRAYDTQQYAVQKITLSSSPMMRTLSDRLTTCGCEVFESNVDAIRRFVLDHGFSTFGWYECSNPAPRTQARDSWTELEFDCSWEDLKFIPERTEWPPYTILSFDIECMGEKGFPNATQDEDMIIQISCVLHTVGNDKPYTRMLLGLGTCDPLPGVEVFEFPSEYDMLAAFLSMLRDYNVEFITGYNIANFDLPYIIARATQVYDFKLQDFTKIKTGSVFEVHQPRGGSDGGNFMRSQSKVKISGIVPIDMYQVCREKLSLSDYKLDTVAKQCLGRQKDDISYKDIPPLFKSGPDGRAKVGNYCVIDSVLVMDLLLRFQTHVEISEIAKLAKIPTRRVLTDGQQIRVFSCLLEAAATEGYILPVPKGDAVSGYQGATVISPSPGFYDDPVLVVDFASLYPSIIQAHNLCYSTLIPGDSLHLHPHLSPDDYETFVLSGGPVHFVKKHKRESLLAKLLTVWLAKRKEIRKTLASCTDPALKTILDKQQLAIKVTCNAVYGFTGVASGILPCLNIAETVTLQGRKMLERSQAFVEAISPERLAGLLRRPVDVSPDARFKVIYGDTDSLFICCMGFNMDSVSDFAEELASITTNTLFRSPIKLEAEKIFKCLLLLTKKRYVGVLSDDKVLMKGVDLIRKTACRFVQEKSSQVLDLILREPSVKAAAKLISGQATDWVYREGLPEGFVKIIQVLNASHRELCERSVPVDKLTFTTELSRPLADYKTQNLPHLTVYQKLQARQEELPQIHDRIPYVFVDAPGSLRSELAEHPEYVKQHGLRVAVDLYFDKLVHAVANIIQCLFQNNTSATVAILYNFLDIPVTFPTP
T1 sequence (F5HID2 1-396 partner): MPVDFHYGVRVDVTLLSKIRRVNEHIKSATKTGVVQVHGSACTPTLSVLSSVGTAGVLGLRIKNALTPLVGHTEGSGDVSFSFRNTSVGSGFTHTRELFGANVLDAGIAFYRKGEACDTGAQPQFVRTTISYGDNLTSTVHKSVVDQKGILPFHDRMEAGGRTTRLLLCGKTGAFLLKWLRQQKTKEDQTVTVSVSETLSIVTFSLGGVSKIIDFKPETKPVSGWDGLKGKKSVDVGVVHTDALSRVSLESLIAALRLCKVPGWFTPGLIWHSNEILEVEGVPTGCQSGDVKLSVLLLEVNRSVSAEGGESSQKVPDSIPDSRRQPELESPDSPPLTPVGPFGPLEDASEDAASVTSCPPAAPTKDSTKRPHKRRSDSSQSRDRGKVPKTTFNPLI
Protocol: KSHV rPOL and rPPF were expressed and purified from the recombinant baculovirus-vector infected Sf9 cells (Dorjsuren, D. et al. 2003 Protein Expr Purif 29:42-50). […] The amounts of newly synthesized DNA, which incorporated DIG-dUTP, were determined by the DIG detection kit (Roche Applied Science) according to the manufacturer's instructions.

Nc1ccn(C[C@@H](CO)OCP(=O)(O)O)c(=O)n1 [CDV, cidofovir]
cytotoxicity at anti-KSHV concentrations ([1]; 0.03 to 10 μM, PMA-induced BCBL-1 cells): without notable cytotoxicity | effect of adding 5'-ET on anti-KSHV activity [2]: not affected | IC50 [3]: 0.42 ± 0.07 µM | IC90 [3]: 4.01 ± 2.05 µM

Nc1nc(O)c2ncn(COC(CO)CO)c2n1 [GCV, ganciclovir]
IC50 [3]: 0.96 ± 0.49 µM | IC90 [3]: 7.11 ± 0.28 µM

Cc1cn([C@H]2C[C@H](O)[C@]3(CO)C[C@H]23)c(=O)[nH]c1=O [N-MCT, North-methanocarbathymidine]
50% cytotoxic concentration ([1]; human, 72 h): > 200 µM | antiviral activity against HSV-1 [4]: strong antiviral activity | antiviral activity against HSV-2 [5]: strong antiviral activity | effect of adding 5'-ET on anti-KSHV activity [2]: marked increases in the level of cytoplasmic KSHV DNA | IC50 [3]: 0.08 ± 0.03 µM | IC90 [3]: 0.68 ± 0.1 µM

Cc1cn([C@H]2C[C@H](O)[C@]3(COP(=O)(O)OP(=O)(O)O)C[C@H]23)c(=O)[nH]c1=O [N-MCT-DP]
level of phosphorylated metabolite in the presence of 50 μM 5'-ET [6]: substantially decreased

Cc1cn(C2CC(O)C3(COP(=O)(O)O)CC23)c(=O)[nH]c1=O (stereo not drawn) [N-MCT-MP]
level of phosphorylated metabolite in the presence of 50 μM 5'-ET [6]: accumulation

Cc1cn([C@@]23C[C@H](O)[C@@H](CO)[C@@H]2C3)c(=O)[nH]c1=O [S-MCT, south-methanocarbathymidine]
antiviral activity against HSV-1 [4]: no antiviral activity | antiviral activity against HSV-2 [5]: no antiviral activity | antiviral activity against KSHV ([3]; data not shown): no antiviral activity

cidofovir diphosphate [CDV-DP]
IC50 [7]: 14.7 ± 2.47 µM
